Experimental data: paper PMC3966854, “Probenecid Blocks Human P2X7 Receptor-Induced Dye Uptake via a Pannexin-1 Independent Mechanism” (PLoS ONE, 2014)
Blank lines part the entries; values can stand above or below the molecule they belong to.

Tests used:
Format in all cases: cell-based
human P2X7 receptor [1] = target: T1, human P2X7 receptor (Homo sapiens, UniProt Q99572); experiment: Fluo-4 calcium influx and ethidium dye uptake; complete block at […]; parameters: gene P2RX7; human P2X7 stably expressed in HEK-293 cells
T1 sequence (Q99572 1-595): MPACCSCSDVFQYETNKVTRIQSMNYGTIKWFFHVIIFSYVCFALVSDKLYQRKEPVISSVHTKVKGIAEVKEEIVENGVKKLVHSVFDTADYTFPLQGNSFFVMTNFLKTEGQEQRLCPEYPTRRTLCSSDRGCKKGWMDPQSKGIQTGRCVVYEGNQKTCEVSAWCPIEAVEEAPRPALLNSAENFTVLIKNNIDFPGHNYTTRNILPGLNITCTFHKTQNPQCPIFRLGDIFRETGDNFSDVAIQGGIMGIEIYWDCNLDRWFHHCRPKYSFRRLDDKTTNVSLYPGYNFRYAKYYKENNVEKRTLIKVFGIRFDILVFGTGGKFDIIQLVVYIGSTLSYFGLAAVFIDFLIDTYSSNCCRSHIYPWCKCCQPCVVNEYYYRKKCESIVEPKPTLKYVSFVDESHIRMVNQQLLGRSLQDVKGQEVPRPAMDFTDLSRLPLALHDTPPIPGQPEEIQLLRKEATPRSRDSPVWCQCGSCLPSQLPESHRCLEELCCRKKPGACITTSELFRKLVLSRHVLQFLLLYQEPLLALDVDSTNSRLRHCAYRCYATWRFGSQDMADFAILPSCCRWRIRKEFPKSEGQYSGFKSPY

human P2X7 receptor [2] = target: T1, human P2X7 receptor; experiment: whole-cell patch clamp, Fluo-4 calcium influx and ethidium dye uptake (IC50 from dye uptake, […] ATP); parameters: gene P2RX7; wild-type human P2X7 stably expressed in HEK-293 cells
rat P2X7 = target: T2, rat P2X7 (Rattus norvegicus, UniProt Q64663); experiment: ATP-induced ethidium dye uptake, […] inhibition at […]; conditions: read-out: % inhibition at 2.5 mM
T2 construct: gene P2rx7; rat P2X7 stably expressed in HEK-293 cells
T2 sequence (Q64663 1-595): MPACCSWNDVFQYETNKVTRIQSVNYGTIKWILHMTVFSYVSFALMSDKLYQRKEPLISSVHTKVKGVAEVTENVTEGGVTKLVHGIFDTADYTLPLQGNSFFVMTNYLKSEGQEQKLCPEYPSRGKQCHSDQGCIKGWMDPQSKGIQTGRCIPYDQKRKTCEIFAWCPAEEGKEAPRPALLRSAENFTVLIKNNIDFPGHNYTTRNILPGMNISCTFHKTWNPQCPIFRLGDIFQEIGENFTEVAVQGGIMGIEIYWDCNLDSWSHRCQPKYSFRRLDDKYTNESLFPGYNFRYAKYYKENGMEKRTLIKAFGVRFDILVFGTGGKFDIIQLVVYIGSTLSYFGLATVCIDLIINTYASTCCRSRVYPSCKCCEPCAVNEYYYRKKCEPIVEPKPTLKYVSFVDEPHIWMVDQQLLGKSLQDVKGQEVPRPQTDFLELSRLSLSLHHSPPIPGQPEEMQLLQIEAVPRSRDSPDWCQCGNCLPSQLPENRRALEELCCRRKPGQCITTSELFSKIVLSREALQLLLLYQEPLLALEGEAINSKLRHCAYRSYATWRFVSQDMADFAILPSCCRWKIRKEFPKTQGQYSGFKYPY

human P2X7 receptor [3] = target: T1, human P2X7 receptor; experiment: ATP-induced ethidium dye uptake; complete block at […]; parameters: gene P2RX7; human P2X7 stably expressed in HEK-293 cells

Structure (SMILES): Clc1cccc(-c2nnnn2Cc2cccnc2)c1Cl [A-438079]
- Fluo-4 calcium influx and ethidium dye uptake; complete block at 10 μM (human P2X7 receptor [1]): 10 µM

- IC50 (human P2X7 receptor [2]): 203 µM
- inhibition at 2500 µM (rat P2X7): 34%
Structure (SMILES): CCCN(CCC)S(=O)(=O)c1ccc(C(=O)O)cc1 [PRO, Probenecid]

- ATP-induced ethidium dye uptake; complete block at 10 μM (human P2X7 receptor [3]): 10 µM
Structure (SMILES): O=C1CSC(=O)N1C(CCc1ccncc1)COc1ccc(-c2cccc([N+](=O)[O-])c2)cc1 (stereo not shown) [AZ11645373]
